According to paper PMC12028158, “Synthesis and In Vitro Evaluation of the Anticancer Effect of Novel Phosphonium Vindoline Derivatives” (International Journal of Molecular Sciences, 2025):
Where two headings read alike, the source gives them in different places.

Assays:
Assay type in all cases: cell-based
[1] = system: CCRF-CEM; assay: NCI60 five-dose screen; settings: Homo sapiens
[2] = system: HL-60(TB); assay: NCI60 five-dose screen; settings: Homo sapiens
[3] = system: MOLT-4; assay: NCI60 five-dose screen; settings: Homo sapiens
[4] = system: RPMI-8226; assay: NCI60 five-dose screen; settings: Homo sapiens
[5] = system: EKVX; assay: NCI60 five-dose screen; settings: Homo sapiens
[6] = system: HCT-15; assay: NCI60 five-dose screen; settings: Homo sapiens
[7] = system: SF-539; assay: NCI60 five-dose screen; settings: Homo sapiens
[8] = system: U251; assay: NCI60 five-dose screen; settings: Homo sapiens
[9] = system: MALME-3M; assay: NCI60 five-dose screen; settings: Homo sapiens
[10] = system: M14; assay: NCI60 five-dose screen; settings: Homo sapiens
[11] = system: SK-MEL-28; assay: NCI60 five-dose screen; settings: Homo sapiens
[12] = system: OVCAR-4; assay: NCI60 five-dose screen; settings: Homo sapiens
[13] = system: OVCAR-5; assay: NCI60 five-dose screen; settings: Homo sapiens
[14] = system: OVCAR-8; assay: NCI60 five-dose screen; settings: Homo sapiens
[15] = system: NCI/ADR-RES; assay: NCI60 five-dose screen; settings: Homo sapiens
[16] = system: 786-0; assay: NCI60 five-dose screen; settings: Homo sapiens
[17] = system: ACHN; assay: NCI60 five-dose screen; settings: Homo sapiens
[18] = system: RXF 393; assay: NCI60 five-dose screen; settings: Homo sapiens
[19] = system: TK-10; assay: NCI60 five-dose screen; settings: Homo sapiens
[20] = system: PC-3; assay: NCI60 five-dose screen; settings: Homo sapiens
[21] = system: MCF7; assay: NCI60 five-dose screen; settings: Homo sapiens
[22] = system: BT-549; assay: NCI60 five-dose screen; settings: Homo sapiens
[23] = system: Non-small Cell Lung Cancer panel; assay: NCI60 five-dose screen, panel mean; settings: Homo sapiens, read-out: GI50 Mean
[24] = system: Melanoma panel; assay: NCI60 five-dose screen, panel mean; settings: Homo sapiens, read-out: GI50 Mean
[25] = system: Ovarian Cancer panel; assay: NCI60 five-dose screen, panel mean; settings: Homo sapiens, read-out: GI50 Mean
[26] = system: Renal Cancer panel; assay: NCI60 five-dose screen, panel mean; settings: Homo sapiens, read-out: GI50 Mean
[27] = system: K-562; assay: NCI60 one-dose screen; settings: Homo sapiens
[28] = system: A549/ATCC; assay: NCI60 one-dose screen; settings: Homo sapiens
[29] = system: EKVX; assay: NCI60 one-dose screen; settings: Homo sapiens, read-out: Growth percent
[30] = system: NCI-H23; assay: NCI60 one-dose screen; settings: Homo sapiens
[31] = system: NCI-H322M; assay: NCI60 one-dose screen; settings: Homo sapiens, read-out: Growth percent
[32] = system: NCI-H460; assay: NCI60 one-dose screen; settings: Homo sapiens
[33] = system: NCI-H522; assay: NCI60 one-dose screen; settings: Homo sapiens
[34] = system: COLO 205; assay: NCI60 one-dose screen; settings: Homo sapiens
[35] = system: KM12; assay: NCI60 one-dose screen; settings: Homo sapiens
[36] = system: SNB-19; assay: NCI60 one-dose screen; settings: Homo sapiens
[37] = system: LOX IMVI; assay: NCI60 one-dose screen; settings: Homo sapiens, read-out: Growth percent
[38] = system: MDA-MB-435; assay: NCI60 one-dose screen; settings: Homo sapiens
[39] = system: UACC-62; assay: NCI60 one-dose screen; settings: Homo sapiens
[40] = system: OVCAR-3; assay: NCI60 one-dose screen; settings: Homo sapiens
[41] = system: SK-OV-3; assay: NCI60 one-dose screen; settings: Homo sapiens
[42] = system: 786-0; assay: NCI60 one-dose screen; settings: Homo sapiens
[43] = system: RXF 393; assay: NCI60 one-dose screen; settings: Homo sapiens
[44] = system: SN12C; assay: NCI60 one-dose screen; settings: Homo sapiens, read-out: Growth percent
[45] = system: TK-10; assay: NCI60 one-dose screen; settings: Homo sapiens
[46] = system: PC-3; assay: NCI60 one-dose screen; settings: Homo sapiens
[47] = system: DU-145; assay: NCI60 one-dose screen; settings: Homo sapiens
[48] = system: MDA-MB-468; assay: NCI60 one-dose screen; settings: Homo sapiens

CC[C@]12C=CCN3CC[C@@]4(c5ccc(OC)cc5N(C)[C@H]4[C@@](O)(C(=O)OC)[C@@H]1OC(=O)CCCC[P+](c1ccc(C)cc1)(c1ccc(C)cc1)c1ccc(C)cc1)[C@@H]32 [10a]
GI50 [1]: 768 nM
GI50 ([2]; HL-60): 221 nM
GI50 ([3]; MOLT-4): 611 nM
GI50 ([4]; RPMI-8226): 283 nM
GI50 [5]: 1050 nM
GI50 ([6]; HCT-15): 2170 nM
GI50 ([7]; SF-539): 1220 nM
GI50 ([8]; U-251): 470 nM
GI50 ([9]; Malme-3M): 1170 nM
GI50 ([10]; M14): 1110 nM
GI50 ([11]; SK-MEL-28): 485 nM
GI50 ([12]; OVCAR-4): 1090 nM
GI50 ([13]; OVCAR-5): 1440 nM
GI50 ([14]; OVCAR-8): 1130 nM
GI50 [15]: 12000 nM
GI50 ([16]; 786-0): 1640 nM
GI50 [17]: 2540 nM
GI50 ([18]; RXF 393): 468 nM
GI50 ([19]; TK-10): 1490 nM
GI50 ([20]; PC-3): 450 nM
GI50 ([21]; MCF7): 325 nM
GI50 ([22]; BT-549): 763 nM
GI50 [23]: 1070 nM
GI50 [24]: 920 nM
GI50 [25]: 2540 nM
GI50 [26]: 2340 nM
activity at 10 µM ([27]; K562, read-out: Growth percent): 0.8%
activity at 10 µM ([28]; A549, read-out: Growth percent): -92.2%
activity at 10 µM [29]: -93.8%
activity at 10 µM ([30]; NCI-H23, read-out: Growth percent): -92.4%
activity at 10 µM [31]: -97.6%
activity at 10 µM ([32]; NCI-H460, read-out: Growth percent): -86.6%
activity at 10 µM ([33]; NCI-H522, read-out: Growth percent): -82.7%
activity at 10 µM ([34]; COLO 205, read-out: Growth percent): -64.1%
activity at 10 µM ([35]; KM12, read-out: Growth percent): -73.6%
activity at 10 µM ([36]; SNB-19, read-out: Growth percent): -96.5%
activity at 10 µM [37]: -94.5%
activity at 10 µM ([38]; MDA-MB-435, read-out: Growth percent): -86.8%
activity at 10 µM ([39]; UACC-62, read-out: Growth percent): -97.4%
activity at 10 µM ([40]; OVCAR-3, read-out: Growth percent): -77.1%
activity at 10 µM ([41]; SK-OV-3, read-out: Growth percent): -82.3%
activity at 10 µM ([42]; 786-0, read-out: Growth percent): -91%
activity at 10 µM ([43]; RXF 393, read-out: Growth percent): -87.6%
activity at 10 µM [44]: -88.5%
activity at 10 µM ([45]; TK-10, read-out: Growth percent): -91.2%
activity at 10 µM ([46]; PC-3, read-out: Growth percent): -73.2%
activity at 10 µM ([47]; DU-145, read-out: Growth percent): -84.5%
activity at 10 µM ([48]; MDA-MB-468, read-out: Growth percent): -92.5%

CCC12C=CCN3CCC4(c5ccc(OC)cc5N(C)C4C(O)(C(=O)OC)C1OC(=O)c1ccc(C[P+](c4ccccc4)(c4ccccc4)c4ccccc4)cc1)C32 (stereo not drawn) [compound 12]
GI50 ([1]; Leukemia, read-out: GI50): 1300 nM
GI50 ([2]; HL-60, HL-60(TB), Leukemia, read-out: GI50): 297 nM
GI50 ([3]; MOLT-4, Leukemia, read-out: GI50): 1470 nM
GI50 ([4]; RPMI-8226, Leukemia, read-out: GI50): 325 nM
GI50 ([5]; Non-small Cell Lung Cancer, read-out: GI50): 2030 nM
GI50 ([6]; HCT-15, Colon Cancer, read-out: GI50): 27400 nM
GI50 ([7]; SF-539, CNS Cancer, read-out: GI50): 1260 nM
GI50 ([8]; U-251, U251, CNS Cancer, read-out: GI50): 644 nM
GI50 ([9]; MALME-3M, Melanoma, read-out: GI50): 652 nM
GI50 ([10]; M14, Melanoma, read-out: GI50): 1350 nM
GI50 ([11]; SK-MEL-28, Melanoma, read-out: GI50): 520 nM
GI50 ([12]; OVCAR-4, Ovarian Cancer, read-out: GI50): 1050 nM
GI50 ([13]; OVCAR-5, Ovarian Cancer, read-out: GI50): 1990 nM
GI50 ([14]; OVCAR-8, Ovarian Cancer, read-out: GI50): 3180 nM
GI50 ([15]; Ovarian Cancer, read-out: GI50): > 100000 nM
GI50 ([16]; 786-0, Renal Cancer, read-out: GI50): 3580 nM
GI50 ([17]; Renal Cancer, read-out: GI50): 18500 nM
GI50 ([18]; RXF 393, Renal Cancer, read-out: GI50): 1140 nM
GI50 ([19]; TK-10, Renal Cancer, read-out: GI50): 2840 nM
GI50 ([20]; PC-3, Prostate Cancer, read-out: GI50): 657 nM
GI50 ([21]; MCF7, MCF7, Breast Cancer, read-out: GI50): 442 nM
GI50 ([22]; BT-549, Breast Cancer, read-out: GI50): 538 nM
GI50 ([23]; mean over Non-small Cell Lung Cancer panel): 2050 nM
GI50 ([24]; mean over Melanoma panel): 1030 nM
GI50 ([25]; mean over Ovarian Cancer panel): 15800 nM
GI50 ([26]; mean over Renal Cancer panel): 8300 nM
activity at 10 µM ([27]; K562, K-562, 10 μM, one-dose, read-out: Growth percent): -54.9%
activity at 10 µM ([28]; A549/ATCC, 10 μM, one-dose, read-out: Growth percent): 31%
activity at 10 µM ([29]; 10 μM, one-dose): 28.7%
activity at 10 µM ([30]; NCI-H23, 10 μM, one-dose, read-out: Growth percent): 0.48%
activity at 10 µM ([31]; 10 μM, one-dose): 19.9%
activity at 10 µM ([32]; NCI-H460, 10 μM, one-dose, read-out: Growth percent): -62.8%
activity at 10 µM ([33]; NCI-H522, 10 μM, one-dose, read-out: Growth percent): -17.4%
activity at 10 µM ([34]; COLO 205, 10 μM, one-dose, read-out: Growth percent): -87.2%
activity at 10 µM ([35]; KM12, 10 μM, one-dose, read-out: Growth percent): -65.8%
activity at 10 µM ([36]; SNB-19, 10 μM, one-dose, read-out: Growth percent): -72.2%
activity at 10 µM ([37]; 10 μM, one-dose): -39.8%
activity at 10 µM ([38]; MDA-MB-435, 10 μM, one-dose, read-out: Growth percent): -88.8%
activity at 10 µM ([39]; UACC-62, 10 μM, one-dose, read-out: Growth percent): -86.9%
activity at 10 µM ([40]; OVCAR-3, 10 μM, one-dose, read-out: Growth percent): -63.4%
activity at 10 µM ([41]; SK-OV-3, 10 μM, one-dose, read-out: Growth percent): -13.2%
activity at 10 µM ([42]; 786-0, 10 μM, one-dose, read-out: Growth percent): -47.8%
activity at 10 µM ([43]; RXF 393, 10 μM, one-dose, read-out: Growth percent): -61.8%
activity at 10 µM ([44]; 10 μM, one-dose): -46.5%
activity at 10 µM ([45]; TK-10, 10 μM, one-dose, read-out: Growth percent): 21.4%
activity at 10 µM ([46]; PC-3, 10 μM, one-dose, read-out: Growth percent): -21.9%
activity at 10 µM ([47]; DU-145, 10 μM, one-dose, read-out: Growth percent): 16.9%
activity at 10 µM ([48]; MDA-MB-468, 10 μM, one-dose, read-out: Growth percent): -49.2%
